ChEMBL document CHEMBL1150306, “2-Trifluoroacetylthiophenes, a novel series of potent and selective class II histone deacetylase inhibitors” (Bioorg Med Chem Lett, 2008)
The source made the active and inactive calls. No cut-off for these calls is given here.

Assays:
[1] = biological target: T1, Histone deacetylase 3 (Homo sapiens, UniProt O15379); assay: Inhibition of HDAC3 at 10 uM
[2] = biological target: Histone deacetylase 4 (Homo sapiens, UniProt P56524, H976Y); assay: Inhibition of HDAC4GOF mutant expressed in Escherichia coli
[3] = biological target: T2, Histone deacetylase 4 (Homo sapiens, UniProt P56524); assay: Inhibition of wild type HDAC4 expressed in Escherichia coli
[4] = biological target: T3, Protein deacetylase HDAC6 (Homo sapiens, UniProt Q9UBN7); assay: Inhibition of HDAC6
T3 sequence (Q9UBN7 whole entry): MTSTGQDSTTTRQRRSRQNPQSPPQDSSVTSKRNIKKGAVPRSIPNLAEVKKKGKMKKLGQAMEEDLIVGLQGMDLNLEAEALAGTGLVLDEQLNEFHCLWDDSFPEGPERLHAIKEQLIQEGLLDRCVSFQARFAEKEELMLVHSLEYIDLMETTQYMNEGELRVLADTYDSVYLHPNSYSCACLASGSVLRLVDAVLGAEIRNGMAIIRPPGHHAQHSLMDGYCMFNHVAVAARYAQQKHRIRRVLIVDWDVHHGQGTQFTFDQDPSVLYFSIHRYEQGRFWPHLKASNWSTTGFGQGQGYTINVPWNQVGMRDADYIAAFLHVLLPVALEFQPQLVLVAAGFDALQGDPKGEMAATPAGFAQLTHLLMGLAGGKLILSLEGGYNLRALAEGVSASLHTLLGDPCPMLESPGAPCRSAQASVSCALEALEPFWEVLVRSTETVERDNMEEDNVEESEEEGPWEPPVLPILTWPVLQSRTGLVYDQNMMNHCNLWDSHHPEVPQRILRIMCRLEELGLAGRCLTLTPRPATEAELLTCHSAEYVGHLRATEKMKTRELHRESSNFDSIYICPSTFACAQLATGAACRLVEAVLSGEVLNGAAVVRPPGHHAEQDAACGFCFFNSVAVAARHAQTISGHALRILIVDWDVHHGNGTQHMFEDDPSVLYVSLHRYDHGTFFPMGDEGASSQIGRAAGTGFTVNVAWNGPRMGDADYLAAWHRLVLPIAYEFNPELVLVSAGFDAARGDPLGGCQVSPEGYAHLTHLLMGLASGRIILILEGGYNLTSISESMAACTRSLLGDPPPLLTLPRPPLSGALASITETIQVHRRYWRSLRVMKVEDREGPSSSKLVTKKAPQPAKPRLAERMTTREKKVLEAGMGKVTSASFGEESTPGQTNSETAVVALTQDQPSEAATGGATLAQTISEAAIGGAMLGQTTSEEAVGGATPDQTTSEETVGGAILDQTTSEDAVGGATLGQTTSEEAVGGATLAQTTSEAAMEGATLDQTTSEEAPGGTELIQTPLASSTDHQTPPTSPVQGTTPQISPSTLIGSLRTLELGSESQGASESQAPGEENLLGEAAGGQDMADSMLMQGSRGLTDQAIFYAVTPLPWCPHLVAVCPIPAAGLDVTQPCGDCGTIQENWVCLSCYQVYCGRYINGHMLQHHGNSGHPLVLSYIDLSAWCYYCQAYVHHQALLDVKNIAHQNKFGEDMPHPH

[5] = biological target: T4, Histone deacetylase 1 (Homo sapiens, UniProt Q13547); assay: Inhibition of HDAC1 at 10 uM
[6] = test system: T5, Histone deacetylase 4 (Homo sapiens), P56524 [H976Y]; assay: Inhibition of HDAC4GOF mutant at 10 uM
T5 sequence (whole entry): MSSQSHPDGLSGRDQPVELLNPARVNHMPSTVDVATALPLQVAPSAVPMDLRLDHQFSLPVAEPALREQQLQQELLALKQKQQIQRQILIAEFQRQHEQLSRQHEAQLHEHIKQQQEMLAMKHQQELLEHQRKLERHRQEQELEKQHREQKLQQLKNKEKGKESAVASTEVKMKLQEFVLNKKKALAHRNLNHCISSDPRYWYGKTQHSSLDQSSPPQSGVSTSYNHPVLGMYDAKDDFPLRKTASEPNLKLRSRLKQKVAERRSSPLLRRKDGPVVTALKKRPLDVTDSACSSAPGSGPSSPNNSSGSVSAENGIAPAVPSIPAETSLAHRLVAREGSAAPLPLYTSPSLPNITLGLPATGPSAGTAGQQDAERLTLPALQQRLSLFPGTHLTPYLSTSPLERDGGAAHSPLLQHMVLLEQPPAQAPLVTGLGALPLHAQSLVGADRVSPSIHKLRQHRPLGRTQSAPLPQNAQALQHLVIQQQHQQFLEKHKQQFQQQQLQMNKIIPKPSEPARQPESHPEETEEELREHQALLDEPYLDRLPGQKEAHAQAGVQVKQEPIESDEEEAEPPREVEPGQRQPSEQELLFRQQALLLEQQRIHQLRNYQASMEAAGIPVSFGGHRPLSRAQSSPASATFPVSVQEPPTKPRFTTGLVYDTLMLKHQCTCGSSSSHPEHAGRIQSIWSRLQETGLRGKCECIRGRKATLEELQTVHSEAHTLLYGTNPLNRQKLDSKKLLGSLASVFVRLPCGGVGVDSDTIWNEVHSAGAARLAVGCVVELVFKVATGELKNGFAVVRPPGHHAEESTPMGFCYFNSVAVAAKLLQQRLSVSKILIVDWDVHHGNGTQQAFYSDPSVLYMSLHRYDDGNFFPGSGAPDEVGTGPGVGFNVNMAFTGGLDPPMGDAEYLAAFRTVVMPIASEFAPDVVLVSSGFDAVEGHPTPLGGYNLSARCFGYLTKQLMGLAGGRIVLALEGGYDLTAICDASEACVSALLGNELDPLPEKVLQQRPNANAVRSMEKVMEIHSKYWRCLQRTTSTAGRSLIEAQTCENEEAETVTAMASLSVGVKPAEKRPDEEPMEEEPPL

[7] = biological target: T2, Histone deacetylase 4; assay: Inhibition of wild type HDAC4 at 10 uM
[8] = biological target: T6, Protein deacetylase HDAC6 (Homo sapiens) (UniProt Q9UBN7); assay: Inhibition of HDAC6 at 10 uM
T6 sequence (whole entry): T3 sequence (Q9UBN7 whole entry)

[9] = biological target: T4, Histone deacetylase 1; assay: Inhibition of HDAC1
[10] = biological target: T1, Histone deacetylase 3; assay: Inhibition of HDAC3

T2 sequence (P56524 whole entry): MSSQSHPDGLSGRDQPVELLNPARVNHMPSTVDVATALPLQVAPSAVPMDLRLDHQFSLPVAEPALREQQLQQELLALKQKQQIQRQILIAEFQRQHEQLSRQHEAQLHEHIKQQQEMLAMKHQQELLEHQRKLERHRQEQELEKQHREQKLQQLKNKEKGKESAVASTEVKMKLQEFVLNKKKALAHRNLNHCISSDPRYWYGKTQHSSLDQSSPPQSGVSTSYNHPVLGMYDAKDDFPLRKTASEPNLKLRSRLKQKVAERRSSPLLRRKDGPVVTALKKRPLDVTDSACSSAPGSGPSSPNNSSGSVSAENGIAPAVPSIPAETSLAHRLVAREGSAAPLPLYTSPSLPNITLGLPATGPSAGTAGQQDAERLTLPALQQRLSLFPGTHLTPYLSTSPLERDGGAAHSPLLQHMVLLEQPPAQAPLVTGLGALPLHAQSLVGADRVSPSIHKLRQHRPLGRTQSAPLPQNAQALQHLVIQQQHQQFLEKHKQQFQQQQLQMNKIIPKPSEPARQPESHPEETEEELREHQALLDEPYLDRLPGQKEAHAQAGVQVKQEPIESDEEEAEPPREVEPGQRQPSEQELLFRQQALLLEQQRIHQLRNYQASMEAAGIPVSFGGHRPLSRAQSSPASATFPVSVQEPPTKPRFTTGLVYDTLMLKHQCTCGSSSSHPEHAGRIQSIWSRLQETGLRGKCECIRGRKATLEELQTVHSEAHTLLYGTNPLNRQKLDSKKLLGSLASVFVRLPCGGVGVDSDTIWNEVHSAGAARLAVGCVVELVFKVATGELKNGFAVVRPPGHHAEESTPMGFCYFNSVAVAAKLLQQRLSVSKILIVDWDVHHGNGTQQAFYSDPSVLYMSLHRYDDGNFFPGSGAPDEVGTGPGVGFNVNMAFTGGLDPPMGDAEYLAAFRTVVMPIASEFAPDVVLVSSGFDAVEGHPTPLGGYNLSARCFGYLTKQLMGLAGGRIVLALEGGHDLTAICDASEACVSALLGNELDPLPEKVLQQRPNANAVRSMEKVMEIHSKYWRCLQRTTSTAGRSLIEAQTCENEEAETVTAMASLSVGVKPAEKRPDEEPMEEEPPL
T1 sequence (O15379 whole entry): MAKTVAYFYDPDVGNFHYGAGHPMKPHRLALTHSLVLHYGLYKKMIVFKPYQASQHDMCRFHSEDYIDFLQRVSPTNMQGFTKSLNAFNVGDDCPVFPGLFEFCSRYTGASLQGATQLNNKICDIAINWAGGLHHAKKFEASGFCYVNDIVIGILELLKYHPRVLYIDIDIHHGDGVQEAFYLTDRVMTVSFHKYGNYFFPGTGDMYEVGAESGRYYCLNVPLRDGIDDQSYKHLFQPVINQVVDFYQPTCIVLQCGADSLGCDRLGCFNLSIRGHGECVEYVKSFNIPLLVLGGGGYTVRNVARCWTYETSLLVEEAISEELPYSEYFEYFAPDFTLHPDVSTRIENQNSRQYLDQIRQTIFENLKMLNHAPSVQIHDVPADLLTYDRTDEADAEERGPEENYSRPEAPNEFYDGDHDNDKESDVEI
T4 sequence (Q13547 whole entry): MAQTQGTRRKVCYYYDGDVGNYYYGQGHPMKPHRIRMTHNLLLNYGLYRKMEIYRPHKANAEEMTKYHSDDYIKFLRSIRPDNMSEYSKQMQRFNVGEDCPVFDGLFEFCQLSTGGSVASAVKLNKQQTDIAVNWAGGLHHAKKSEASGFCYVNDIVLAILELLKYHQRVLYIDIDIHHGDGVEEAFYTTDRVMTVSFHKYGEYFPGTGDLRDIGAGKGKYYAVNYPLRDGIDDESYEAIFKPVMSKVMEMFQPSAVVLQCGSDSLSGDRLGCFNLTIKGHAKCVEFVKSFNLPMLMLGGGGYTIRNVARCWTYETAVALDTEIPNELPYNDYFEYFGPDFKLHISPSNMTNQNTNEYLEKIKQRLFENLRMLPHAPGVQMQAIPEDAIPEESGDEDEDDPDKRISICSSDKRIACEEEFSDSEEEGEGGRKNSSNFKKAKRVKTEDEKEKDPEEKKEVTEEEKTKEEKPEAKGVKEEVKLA

SMILES: COc1ccc(COCc2ccc(C(=O)C(F)(F)F)s2)cc1
- Activity [1]: inactive
- IC50 [2]: 2700 nM
- IC50 [3]: 5500 nM
- IC50 [4]: 410 nM
- Activity [5]: inactive

SMILES: O=C(c1ccc(B(O)O)s1)N1CCc2ccccc21
- Activity [1]: inactive
- Activity [5]: inactive
- Activity [6]: inactive
- Activity [7]: inactive
- inhibition [8]: 42%

SMILES: O=C(c1ccc(P(=O)(O)O)s1)N1CCc2ccccc21
- Activity [1]: inactive
- Activity [5]: inactive
- Activity [6]: inactive
- Activity [7]: inactive
- Activity [8]: inactive

SMILES: CCOC(=O)c1ccc(C(=O)C(F)(F)F)o1
- Activity [1]: inactive
- IC50 [2]: 3100 nM
- IC50 [3]: 2500 nM
- IC50 [4]: 550 nM
- inhibition [5]: 48%

SMILES: O=C(c1ccc(C(=O)C(F)(F)F)s1)N1CCc2ccccc21
- IC50 [9]: 2000 nM
- IC50 [10]: 1700 nM
- IC50 [2]: 300 nM
- IC50 [3]: 130 nM
- IC50 [4]: 200 nM

SMILES: C[C@@H](NCc1ccc(C(=O)C(F)(F)F)s1)c1ccccc1
- Activity [1]: inactive
- IC50 [2]: 3500 nM
- IC50 [3]: 3700 nM
- IC50 [4]: 840 nM
- Activity [5]: inactive

SMILES: O=C(c1ccc(C(=O)C(F)(F)F)[nH]1)N1CCc2ccccc21
- Activity [1]: inactive
- IC50 [4]: 880 nM
- Activity [5]: inactive
- Activity [6]: inactive
- inhibition [7]: 47%

SMILES: CN(Cc1ccccc1)Cc1ccc(C(=O)C(F)(F)F)s1
- IC50 [9]: 3100 nM
- IC50 [10]: 4600 nM
- IC50 [2]: 1100 nM
- IC50 [3]: 970 nM
- IC50 [4]: 490 nM

SMILES: O=C(NCC1CCCCC1)c1cnc(C(=O)C(F)(F)F)s1
- IC50 [10]: 7600 nM
- IC50 [2]: 2900 nM
- IC50 [3]: 850 nM
- IC50 [4]: 1500 nM
- Activity [5]: inactive

SMILES: O=C(NCCc1ccccc1)c1ccc(C(=O)C(F)(F)F)s1
- IC50 [9]: 880 nM
- IC50 [10]: 1700 nM
- IC50 [2]: 180 nM
- IC50 [3]: 330 nM
- IC50 [4]: 210 nM

SMILES: CCNC(=O)c1ccc(C(=O)C(F)(F)F)s1
- IC50 [9]: 7100 nM
- IC50 [2]: 1000 nM
- IC50 [3]: 1700 nM
- IC50 [4]: 310 nM

SMILES: O=C(c1ccc(C2(C(F)(F)F)OCCO2)s1)N1CCc2ccccc21
- Activity [1]: inactive
- Activity [5]: inactive
- Activity [6]: inactive
- Activity [7]: inactive
- Activity [8]: inactive

SMILES: C[C@H](NC(=O)c1ccc(C(=O)C(F)(F)F)s1)c1ccccc1
- IC50 [9]: 5300 nM
- IC50 [10]: 9400 nM
- IC50 [2]: 280 nM
- IC50 [3]: 170 nM
- IC50 [4]: 210 nM

SMILES: CN(Cc1ccc2nccnc2c1)C(=O)c1ccc(C(=O)O)s1
- Activity [1]: inactive
- Activity [5]: inactive
- Activity [6]: inactive
- Activity [7]: inactive
- Activity [8]: inactive

SMILES: CC(=O)c1ccc(C(=O)N[C@H](C)c2ccccc2)s1
- Activity [1]: inactive
- IC50 [4]: 6900 nM
- Activity [5]: inactive
- Activity [6]: inactive
- Activity [7]: inactive

SMILES: CN(Cc1ccccc1)C(=O)c1ccc(C(=O)C(F)(F)F)s1
- IC50 [9]: 1800 nM
- IC50 [10]: 1200 nM
- IC50 [2]: 170 nM
- IC50 [3]: 510 nM
- IC50 [4]: 230 nM

SMILES: O=C(c1ccc(C(=O)N2CCc3ccccc32)s1)C(F)F
- IC50 [9]: 9700 nM
- inhibition [1]: 42%
- IC50 [2]: 420 nM
- IC50 [3]: 7600 nM
- IC50 [4]: 15 nM

SMILES: CS(=O)(=O)c1ccc(C(=O)N2CCc3ccccc32)s1
- Activity [1]: inactive
- Activity [5]: inactive
- Activity [6]: inactive
- Activity [7]: inactive
- inhibition [8]: 47%

SMILES: CCOC(=O)c1ccc(C(=O)C(F)(F)F)s1
- IC50 [9]: 5700 nM
- IC50 [10]: 3500 nM
- IC50 [2]: 350 nM
- IC50 [3]: 320 nM
- IC50 [4]: 550 nM

SMILES: O=C(NCC1CCCCC1)c1ccc(C(=O)C(F)(F)F)s1
- IC50 [9]: 2900 nM
- IC50 [10]: 3100 nM
- IC50 [2]: 350 nM
- IC50 [3]: 400 nM
- IC50 [4]: 460 nM

SMILES: CN(Cc1ccccc1)S(=O)(=O)c1csc(C(=O)C(F)(F)F)c1
- Activity [1]: inactive
- IC50 [3]: 9400 nM
- IC50 [4]: 2500 nM
- Activity [5]: inactive
- Activity [6]: inactive

SMILES: O=C(NCC1CCCCC1)c1cc(C(=O)C(F)(F)F)cs1
- Activity [1]: inactive
- IC50 [2]: 2400 nM
- IC50 [3]: 3300 nM
- IC50 [4]: 2000 nM
- inhibition [5]: 40%

SMILES: O=C(NCC1CCCCC1)c1cccc(C(=O)C(F)(F)F)c1
- Activity [1]: inactive
- IC50 [4]: 4200 nM
- Activity [5]: inactive
- Activity [6]: inactive
- Activity [7]: inactive

SMILES: CN(Cc1ccccc1)C(=O)c1cc(C(=O)C(F)(F)F)cs1
- Activity [1]: inactive
- IC50 [2]: 2500 nM
- IC50 [3]: 1700 nM
- IC50 [4]: 640 nM
- Activity [5]: inactive

SMILES: COc1ccc(CNC(=O)c2ccc(C(=O)C(F)(F)C(F)(F)F)s2)cc1
- IC50 [9]: 4200 nM
- IC50 [10]: 2900 nM
- Activity [6]: inactive
- Activity [7]: inactive
- Activity [8]: inactive

SMILES: CN(Cc1ccccc1)C(=O)c1cnc(C(=O)C(F)(F)F)s1
- IC50 [10]: 7300 nM
- IC50 [2]: 2200 nM
- IC50 [3]: 760 nM
- IC50 [4]: 1300 nM
- inhibition [5]: 46%

SMILES: CN(Cc1ccccc1)C(=O)c1ccc(C(O)C(F)(F)F)s1 (centres undefined)
- Activity [1]: inactive
- Activity [5]: inactive
- Activity [6]: inactive
- Activity [7]: inactive
- Activity [8]: inactive

SMILES: COc1ccc(CNC(=O)c2ccc(C(=O)C(F)(F)F)s2)cc1
- IC50 [9]: 210 nM
- IC50 [10]: 120 nM
- IC50 [2]: 70 nM
- IC50 [3]: 180 nM
- IC50 [4]: 240 nM

SMILES: O=C(NCC1CCCCC1)c1ccc(C(=O)C(F)(F)F)cc1
- Activity [1]: inactive
- IC50 [4]: 2500 nM
- Activity [5]: inactive
- inhibition [6]: 31%
- inhibition [7]: 32%

SMILES: C[C@@H](NC(=O)c1ccc(C(=O)C(F)(F)F)s1)c1ccccc1
- IC50 [9]: 320 nM
- IC50 [10]: 230 nM
- IC50 [2]: 160 nM
- IC50 [3]: 76 nM
- IC50 [4]: 360 nM

SMILES: CN(Cc1ccccc1)S(=O)(=O)c1ccc(C(=O)C(F)(F)F)s1
- Activity [1]: inactive
- IC50 [2]: 1200 nM
- IC50 [3]: 340 nM
- IC50 [4]: 730 nM
- Activity [5]: inactive
